Some test systems named below: RPMI-8226 leukemia; SW-620 colon; OVCAR-8 ovarian; SF-539 CNS; OVCAR-5 ovarian; EKVX NSCLC; UACC-62 melanoma; SF-268 CNS; KM12 colon; NCI-H522 lung; SF-295 CNS; OVCAR-4 ovarian; SNB-19 CNS; A549 NSCLC; SNB-75 CNS; T-47D breast; MDA-MB-231 breast.
Test in all cases: DTP human tumour cell line panel, 48 h

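In this assay, cells in 96-well plates receive the compound at five concentrations for 48 hours. Endpoints are linearly interpolated between the surrounding concentrations. At the TGI there is no net growth.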

A word on the TGI: it is the concentration giving total growth inhibition. The low end stands for greater sensitivity of the cells, the high end for lower sensitivity of the cells.

For `CN(CCO)c1nc2c(c(=O)[nH]1)CCC2`, the TGI in the assay with RPMI-8226 leukemia, in the assay on SW-620 colon, in the assay on OVCAR-8 ovarian, in the assay with SF-539 CNS, in the assay on OVCAR-5 ovarian and in the assay on EKVX NSCLC was more than 100 µM in each case. Besides, the TGI in the assay on UACC-62 melanoma, in the assay with SF-268 CNS, in the assay on KM12 colon, in the assay with NCI-H522 lung, with SF-295 CNS and with OVCAR-4 ovarian was more than 100 µM in each case. Besides, the TGI in the assay with SNB-19 CNS, with A549 NSCLC and in the assay on SNB-75 CNS was more than 100 µM each time.

With `CCO[C@]12C[C@H](OC)[C@@]3(O)CC(C1[C@H]3OCc1ccccc1)C13C4C2[C@H](OC)C1[C@](COC)(CN4CC)[C@H](O)C[C@@H]3OC` (some centres not stated), the TGI in the assay on RPMI-8226 leukemia, in the assay with SW-620 colon, with OVCAR-8 ovarian, in the assay on SF-539 CNS, in the assay with OVCAR-5 ovarian and with EKVX NSCLC was more than 100 µM each time. Further, the TGI in the assay with UACC-62 melanoma, in the assay with SF-268 CNS, with OVCAR-4 ovarian, in the assay on SNB-19 CNS, with A549 NSCLC and with SNB-75 CNS was more than 100 µM each time.

Take `CC(=O)C1=CSC2[C@H](NC(=O)Cc3ccccc3)C(=O)N2C1C(=O)OC(c1ccccc1)c1ccccc1` (some centres not stated): the TGI in the assay with RPMI-8226 leukemia, in the assay on SW-620 colon, in the assay on OVCAR-8 ovarian, in the assay with SF-539 CNS, in the assay on EKVX NSCLC and in the assay with UACC-62 melanoma was more than 100 µM throughout. The TGI in the assay on SF-268 CNS, in the assay with KM12 colon, in the assay on NCI-H522 lung, in the assay on SF-295 CNS, in the assay with OVCAR-4 ovarian and with SNB-19 CNS was more than 100 µM throughout. In addition, the TGI in the assay on A549 NSCLC and in the assay on SNB-75 CNS was more than 100 µM in each case.

Turning to `CCOC1(COP(=O)(OCc2ccccc2)OCc2ccccc2)COC(COP(=O)(OCc2ccccc2)OCc2ccccc2)(OCC)CO1` (configuration not stated), the TGI in the assay on RPMI-8226 leukemia is more than 100 µM; in the assay on SW-620 colon it was more than 100 µM; in the assay on OVCAR-8 ovarian, more than 100 µM; in the assay with SF-539 CNS, more than 100 µM; in the assay with OVCAR-5 ovarian, more than 100 µM; in the assay with EKVX NSCLC it was 9.43 µM. Besides, the TGI in the assay on UACC-62 melanoma, with SF-268 CNS, in the assay with KM12 colon, with NCI-H522 lung, in the assay on SF-295 CNS and in the assay with OVCAR-4 ovarian was more than 100 µM in each case. The TGI in the assay on SNB-19 CNS and with A549 NSCLC was more than 100 µM throughout.

On to `O=c1cc(-c2ccccc2)[nH]c2cc(O)ccc12`, for which the TGI in the assay with RPMI-8226 leukemia is 37.6 µM; in the assay on SW-620 colon it was 31.3 µM; in the assay on OVCAR-8 ovarian it was more than 100 µM; in the assay with SF-539 CNS, more than 100 µM; with OVCAR-5 ovarian, more than 100 µM; with EKVX NSCLC it was more than 100 µM. The TGI in the assay with UACC-62 melanoma is 46.5 µM; with SF-268 CNS it was more than 100 µM; in the assay with KM12 colon it was 50.7 µM; in the assay on NCI-H522 lung it was 76.2 µM; with SF-295 CNS, more than 100 µM; with OVCAR-4 ovarian it was 58.1 µM. Also, the values for the TGI in the assay on SNB-19 CNS, with A549 NSCLC and in the assay with SNB-75 CNS were more than 100 µM, 81.8 µM and 72.5 µM, respectively.

In the case of `CN(C)CCCNC(=O)N/N=C/c1cccc([N+](=O)[O-])c1`, the TGI in the assay on SW-620 colon, with OVCAR-8 ovarian, in the assay on SF-539 CNS, in the assay with UACC-62 melanoma, in the assay on SF-268 CNS and in the assay on KM12 colon was more than 100 µM each time. The TGI in the assay on NCI-H522 lung, in the assay with SF-295 CNS, in the assay on OVCAR-4 ovarian, with SNB-19 CNS, in the assay with A549 NSCLC and with SNB-75 CNS was more than 100 µM throughout.

With `C=C1CC2OC2(C(=O)O[C@H]2CCC3[C@@H]4CCC5=CC(=O)CC[C@]5(C)C4CC[C@@]32C)C1=O` (some centres not stated), the TGI amounted to 5.79 µM in the assay with RPMI-8226 leukemia; 11.8 µM with SW-620 colon; 45.1 µM with OVCAR-8 ovarian; 14.2 µM in the assay with T-47D breast; 18.1 µM in the assay on SF-539 CNS; 38.4 µM in the assay with OVCAR-5 ovarian. Further, the TGI is 48 µM with EKVX NSCLC; 28.7 µM in the assay on UACC-62 melanoma; 18.2 µM with SF-268 CNS; 32 µM in the assay with KM12 colon; 8 µM in the assay with NCI-H522 lung; 42.8 µM with SF-295 CNS. Also, the TGI came out at 18.4 µM in the assay with OVCAR-4 ovarian, 36.3 µM in the assay with SNB-19 CNS, 43 µM in the assay on A549 NSCLC and 33.9 µM with SNB-75 CNS.

Regarding `CC12NN=NC1C(=O)NC2=O` (configuration not stated), the TGI in the assay on RPMI-8226 leukemia, in the assay on SW-620 colon, in the assay on OVCAR-8 ovarian, in the assay with SF-539 CNS, in the assay on EKVX NSCLC and with UACC-62 melanoma was more than 100 µM in each case. The TGI in the assay on SF-268 CNS, in the assay on KM12 colon, with NCI-H522 lung, in the assay on SF-295 CNS, with OVCAR-4 ovarian and in the assay with SNB-19 CNS was more than 100 µM in each case. The TGI in the assay with A549 NSCLC and in the assay on SNB-75 CNS was more than 100 µM in each case.

On to `N#Cc1c(N)oc(-c2cccc([N+](=O)[O-])c2)c1C#N`, for which the TGI is 59.8 µM with RPMI-8226 leukemia; 62 µM with SW-620 colon; 44.1 µM in the assay on OVCAR-8 ovarian; more than 100 µM with T-47D breast; 57.2 µM with SF-539 CNS; more than 100 µM in the assay on OVCAR-5 ovarian. Also, the TGI with EKVX NSCLC was more than 100 µM; in the assay with UACC-62 melanoma it was more than 100 µM; in the assay with SF-268 CNS, more than 100 µM; with NCI-H522 lung, 59.1 µM; in the assay with SF-295 CNS it was more than 100 µM; in the assay with MDA-MB-231 breast, more than 100 µM. The figures for the TGI with SNB-19 CNS, with A549 NSCLC and in the assay with SNB-75 CNS were 74.6 µM, more than 100 µM and 98.2 µM, respectively.
